Measured values published in US11952364B2, “TRK inhibitors useful as anticancer drugs” (TYLIGAND BIOSCIENCE (SHANGHAI) LIMITED, priority 2018, dated 2024).

Tests used:
Test in all cases: Cytochrome P450 inhibition in human liver microsomes
Assay type in all cases: in vitro ADME
P450 2D6 = P450 2D6 (Homo sapiens (Human), UniProt P10635)
From the text: (§1) According to the standard methods conventional in the art for cytochrome P450 enzyme system study, for example those described in Kerns, Edward H. and Di Li (2008). Drug-like Properties: Concepts. Structure Design and Methods: from ADME to Toxicity Optimization. San Diego: Academic Press; Lin, Tong et al., In Vitro Assessment of Cytochrome P450 Inhibition: Strategies for Increasing LC/MS-Based Assay Throughput Using a One-Point IC50 Method and Multiplexing High-Performance Liquid Chromatography; J. Pharm. Sci. 2007, 96(9), 2485.), the inhibitory effect of the compounds of the present disclosure on the cytochrome P450 enzyme system was investigated analogously as follows. The test compounds were evaluated by detecting the metabolism of human liver microsomes for the substrates of different subtypes of Cyp450. The liver microsomes (Sekisui XenoTech, LLC., human liver microsomes, cat. #H0610) were slowly melted on ice, and 0.482 mL of the liver microsome solution (20 mg/mL) was added to 30 mL of 100 mM potassium phosphate solution to prepare a liver microsome working solution with a concentration of 0.316 mg/mL. The test compound and specific inhibitors of different Cyp450 subtypes (as a control) were prepared into 10 mM DMSO solutions, and then 20 μL of the 10 mM DMSO compound solution was added to 180 μL of acetonitrile to obtain a 1 mM compound solution. 2 μL of such 1 mM test compound or inhibitor solution was added to 150 μL of 0.316 mg/mL liver microsome working solution to obtain a 13.16 μM compound working solution. 45.3 mg of NADPH (SIGMA, cat. #V900362) was weighted and added into 13.59 mL of deionized water to prepare a 4 mM NADPH aqueous solution. 0.2 mL of 2 mg/mL internal standard stock solution (dexamethasone in acetonitrile) was added to 1000 mL of acetonitrile (SIGMA, cat. #271004) to prepare a reaction stop solution and stored at 4° C. 150 μL 0.316 mg/mL human liver microsome working solution was added to each well of a 96-well deep plate, and 2 μL of 1 mM specific inhibitor or test compound solution was added to the corresponding wells, and then added to each well 50 μL preheated working solution of each substrate (in 4 mM NADPH solution). After incubating for 5-40 minutes respectively (different enzymes have different incubation times), 200 μL of pre-cooled reaction stop solution was added. All samples were centrifuged at 4000 rpm for 20 minutes. 150 μL of the centrifugal supernatant was then added to a new 96-well deep plate, and added to each well 150 μL of 0.1% formic acid aqueous solution, for analysis by LC/MS/MS (SCI AP4000). The single point IC50 values were calculated according to the following formula. [formula] • (Assuming Hill slope=1) • C0=concentration of test compound and inhibitor solution

P450 2C19 = P450 2C19 (Homo sapiens (Human), UniProt P33261)
From the text: as §1

P450 2C9 = P450 2C9 (Homo sapiens (Human), UniProt P11712)
From the text: as §1

P450 1A2 = P450 1A2 (Homo sapiens (Human), UniProt P05177)
From the text: as §1

Chain of P450 2C9 (P11712 whole entry): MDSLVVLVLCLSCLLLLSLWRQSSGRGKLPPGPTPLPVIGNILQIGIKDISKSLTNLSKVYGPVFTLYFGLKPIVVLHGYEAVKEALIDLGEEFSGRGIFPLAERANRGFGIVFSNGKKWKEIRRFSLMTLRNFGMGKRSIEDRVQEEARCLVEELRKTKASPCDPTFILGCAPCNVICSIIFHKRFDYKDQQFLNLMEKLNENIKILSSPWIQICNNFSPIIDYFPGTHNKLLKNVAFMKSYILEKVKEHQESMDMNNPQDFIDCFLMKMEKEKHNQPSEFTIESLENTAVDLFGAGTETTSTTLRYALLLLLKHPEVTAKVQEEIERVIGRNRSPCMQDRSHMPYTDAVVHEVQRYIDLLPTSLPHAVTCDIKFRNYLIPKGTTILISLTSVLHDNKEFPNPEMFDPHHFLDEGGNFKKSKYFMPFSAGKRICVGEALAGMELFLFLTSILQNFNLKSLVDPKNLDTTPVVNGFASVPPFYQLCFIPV
Chain of P450 1A2 (P05177 whole entry): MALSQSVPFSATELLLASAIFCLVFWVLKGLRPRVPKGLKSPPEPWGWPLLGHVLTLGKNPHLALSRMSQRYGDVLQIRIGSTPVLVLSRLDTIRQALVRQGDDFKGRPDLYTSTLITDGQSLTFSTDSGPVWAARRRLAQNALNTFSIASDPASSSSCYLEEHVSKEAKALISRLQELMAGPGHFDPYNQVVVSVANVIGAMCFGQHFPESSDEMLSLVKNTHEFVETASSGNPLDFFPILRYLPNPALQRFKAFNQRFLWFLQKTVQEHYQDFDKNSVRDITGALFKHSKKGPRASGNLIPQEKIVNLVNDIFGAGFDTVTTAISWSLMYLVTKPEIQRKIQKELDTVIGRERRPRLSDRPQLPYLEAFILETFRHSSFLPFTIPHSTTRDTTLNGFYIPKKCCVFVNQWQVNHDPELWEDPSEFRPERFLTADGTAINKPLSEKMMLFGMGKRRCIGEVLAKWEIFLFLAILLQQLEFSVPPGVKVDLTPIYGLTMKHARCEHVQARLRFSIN
Chain of P450 2C19 (P33261 whole entry): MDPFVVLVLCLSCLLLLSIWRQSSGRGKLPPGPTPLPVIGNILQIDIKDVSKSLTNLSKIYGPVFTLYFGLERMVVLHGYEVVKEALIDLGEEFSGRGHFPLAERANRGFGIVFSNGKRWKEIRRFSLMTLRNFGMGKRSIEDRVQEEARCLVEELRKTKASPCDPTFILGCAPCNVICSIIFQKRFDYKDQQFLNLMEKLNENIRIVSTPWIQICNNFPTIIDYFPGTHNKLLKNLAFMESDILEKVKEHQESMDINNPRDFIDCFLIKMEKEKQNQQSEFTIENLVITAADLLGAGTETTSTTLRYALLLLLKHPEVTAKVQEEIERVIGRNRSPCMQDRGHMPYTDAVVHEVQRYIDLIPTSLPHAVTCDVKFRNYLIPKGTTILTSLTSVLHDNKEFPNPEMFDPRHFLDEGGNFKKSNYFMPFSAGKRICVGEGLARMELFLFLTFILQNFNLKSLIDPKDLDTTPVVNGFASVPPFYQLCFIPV
Chain of P450 2D6 (P10635 whole entry): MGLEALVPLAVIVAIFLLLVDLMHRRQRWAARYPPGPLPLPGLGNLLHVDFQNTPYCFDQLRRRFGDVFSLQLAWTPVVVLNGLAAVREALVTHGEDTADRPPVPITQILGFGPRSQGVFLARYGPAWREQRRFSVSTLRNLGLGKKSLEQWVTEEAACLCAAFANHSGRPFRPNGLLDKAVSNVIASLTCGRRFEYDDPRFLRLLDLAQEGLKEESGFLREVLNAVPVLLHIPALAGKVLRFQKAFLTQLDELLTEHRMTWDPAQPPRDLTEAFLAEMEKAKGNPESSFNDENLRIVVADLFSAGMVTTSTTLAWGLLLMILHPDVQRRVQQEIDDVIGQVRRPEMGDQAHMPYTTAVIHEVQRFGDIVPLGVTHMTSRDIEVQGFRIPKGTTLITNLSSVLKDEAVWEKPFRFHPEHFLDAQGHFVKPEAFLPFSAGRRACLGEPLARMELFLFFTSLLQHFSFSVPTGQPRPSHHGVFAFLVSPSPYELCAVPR

SMILES	IC50 (P450 2D6)	IC50 (P450 2C19)	IC50 (P450 2C9)	inhibitory activity on 2C9 compared with Merestinib (P450 2C9; statement in words)	IC50 (P450 1A2)
COc1ccc(C(=O)Nc2ccc(Oc3cc4cnn(C)c4cc3-c3cn[nH]c3)c(F)c2)c(=O)n1-c1ccc(F)cc1 [Example 12, N-(3-fluoro-4-(1-methyl-6-(1H-pyrazol-4-yl)-1H-indazol-5-yloxy)phenyl)-1-(4-fluorophenyl)-6-methoxy-2-oxo-1,2-dihydropyridine-3-carboxamide]	> 10 µM	> 10 µM	9.8 µM	significantly lower than that of the prior inhibitor Merestinib	> 10 µM
Cc1ccc(C(=O)Nc2ccc(Oc3cc4cnn(C)c4cc3-c3cn[nH]c3)c(F)c2)c(=O)n1-c1ccc(F)cc1 [Merestinib, reference compound]	> 10 µM	> 10 µM	4.2 µM		> 10 µM
